Values quoted from earlier work, collected in US20030100472A1, “Detergent tablet compositions” (Unilever Home & Personal Care USA, Division of Conopco, Inc., priority 2001, published 2003).
Read-outs that look alike come from different tables or passages of the source.

Compound	Water Solubility (g/100 g) (at 20° C., other materials)	Water Solubility (g/100 g) (grams of solid required to form a saturated solution in 100 grams of water at 20° C., highly water-soluble materials)
O=BO[O-].[Na+] [Sodium perborate anhydrous]	3.7 g/100 g	
O=P(O)(O)OP(=O)(O)OP(=O)(O)O [Sodium tripolyphosphate anhydrous]	15 g/100 g	
NC(N)=O [Urea]		>100 g/100 g
